Test results published in US10344025B2, “GLS1 inhibitors for treating disease” (Board of Regents, The University of Texas System, priority 2014, dated 2019).
“And” between values parts separate entries of the source, which are not always exact repeats. Identical values can stand only once.

Tests used:
[1] = target: purified recombinant human GAC (GLS1) (Homo sapiens (Human), UniProt O94925); experiment: GLS1 Enzymatic Activity Assay (dual-coupled enzymatic assay, resorufin/Amplex UltraRed readout); assay type: biochemical;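 also: glutamate from GAC coupled via glutamate oxidase and peroxidase to resorufin, read as fluorescence (ex 530, em 590 nm) kinetically or at 20 min, four-parameter logistic IC50 fit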
A549 cells = experiment: Proliferation Assay (A549 viability, Cell Titer Fluor, 72 hours); assay type: cell-based; details: Homo sapiens
Summary of the method: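 A549 cells seeded at 1000 cells/well, rested 24 h, then exposed to compound in 0.5% DMSO for 72 h at 37 °C. Viability read by Cell Titer Fluor fluorescence; IC50 from four-parameter logistic fit.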

purified recombinant human GAC (GLS1), sequence (O94925 other isoform, or with tags, fused parts or gaps): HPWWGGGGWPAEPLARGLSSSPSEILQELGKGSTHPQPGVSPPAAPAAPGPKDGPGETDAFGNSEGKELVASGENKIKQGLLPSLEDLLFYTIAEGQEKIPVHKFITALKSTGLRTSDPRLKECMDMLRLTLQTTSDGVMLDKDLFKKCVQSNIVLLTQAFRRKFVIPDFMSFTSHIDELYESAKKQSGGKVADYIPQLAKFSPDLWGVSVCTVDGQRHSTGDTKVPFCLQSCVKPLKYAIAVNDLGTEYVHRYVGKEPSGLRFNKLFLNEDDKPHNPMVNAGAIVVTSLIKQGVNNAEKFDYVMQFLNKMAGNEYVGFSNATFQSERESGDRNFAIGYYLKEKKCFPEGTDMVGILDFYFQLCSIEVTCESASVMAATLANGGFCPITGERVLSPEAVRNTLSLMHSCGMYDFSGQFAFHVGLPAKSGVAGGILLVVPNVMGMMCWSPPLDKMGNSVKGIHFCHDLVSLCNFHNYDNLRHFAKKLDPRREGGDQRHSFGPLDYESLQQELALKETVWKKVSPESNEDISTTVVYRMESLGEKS

| Structure (SMILES) | IC50 [1] | EC50 (A549 cells; A549, 72 h) [µM] | EC50 (A549 cells) [µM] |
| --- | --- | --- | --- |
| CNC(=O)c1cn(CC(F)CCc2ccc(NC(=O)Cc3cc(C(F)(F)F)cc(C4CC4)n3)nn2)nn1 (centres unmarked) [Example 263, 1-(4-(6-(2-(6-cyclopropyl-4-(trifluoromethyl)pyridin-2-yl)acetamido)pyridazin-3-yl)-2-fluorobutyl)-N-methyl-1H-1,2,3-triazole-4-carboxamide] | < 0.1 µM | < 0.1 |  |
| NC(=O)c1cn(CCCCc2ccc(NC(=O)Cc3cccc(OC(F)(F)F)c3)nn2)nn1 [Example 596, 1-(4-(6-(2-(3-(trifluoromethoxy)phenyl)acetamido)pyridazin-3-yl)butyl)-1H-1,2,3-triazole-4-carboxamide] | < 0.1 µM | 0.1 to 0.5 |  |
| CC(C)(O)CNC(=O)c1nnc(CCCCc2ccc(NC(=O)Cc3cccc(OC(F)(F)F)c3)nn2)s1 [Example 34, N-(2-hydroxy-2-methylpropyl)-5-[4-(6-{2-[3-(trifluoromethoxy)phenyl]acetamido}pyridazin-3-yl)butyl]-1,3,4-thiadiazole-2-carboxamide] | < 0.1 µM and 0.1 to 0.5 µM | 0.1 to 0.5 |  |
| Cc1ccc(CC(=O)Nc2cn(CCCCn3cc(C(=O)NCC4CC4)nn3)nn2)cn1 [Example 319, N-(cyclopropylmethyl)-1-(4-{4-[2-(6-methylpyridin-3-yl)acetamido]-1H-1,2,3-triazol-1-yl}butyl)-1H-1,2,3-triazole-4-carboxamide] | 0.5 to 5 µM | > 5 |  |
| O=C(NCc1cncc(C(F)(F)F)c1)c1cn(CC(F)CCc2nnc(C(=O)NCc3cccc(C(F)(F)F)n3)s2)nn1 (centres unmarked) [Example 490, 5-{3-fluoro-4-[4-({[5-(trifluoromethyl)pyridin-3-yl]methyl}carbamoyl)-1H-1,2,3-triazol-1-yl]butyl}-N-{[6-(trifluoromethyl)pyridin-2-yl]methyl}-1,3,4-thiadiazole-2-carboxamide] | < 0.1 µM | < 0.1 |  |
| O=C(Cc1cc(OC(F)(F)F)ccc1F)Nc1cn(CCCCn2cc(C(=O)NCc3ncccc3F)nn2)nn1 [Example 382, 1-[4-(4-{2-[2-fluoro-5-(trifluoromethoxy)phenyl]acetamido} 1H-1,2,3-triazol-1-yl)butyl]-N-[(3-fluoropyridin-2-yl)methyl]-1H-1,2,3-triazole-4-carboxamide] | < 0.1 µM | 0.1 to 0.5 |  |
| CNC(=O)c1cn(CCCCc2ccc(NC(=O)Cc3cc(C4CCOCC4)ccn3)nn2)nn1 [Example 208, N-methyl-1-(4-(6-(2-(4-(tetrahydro-2H-pyran-4-yl)pyridin-2-yl)acetamido)pyridazin-3-yl)butyl)-1H-1,2,3-triazole-4-carboxamide] | < 0.1 µM | 0.1 to 0.5 |  |
| O=C(NCc1cc(C(F)(F)F)ccn1)c1cn(CCCCn2cc(C(=O)NC[C@@H]3CC4CCC3O4)nn2)nn1 (stereo partly drawn) [Example 103, 1-[4-(4-{[(2S)-7-oxabicyclo[2.2.1]heptan-2-ylmethyl]carbamoyl}-1H-1,2,3-triazol-1-yl)butyl]-N-{[4-(trifluoromethyl)pyridin-2-yl]methyl}-1H-1,2,3-triazole-4-carboxamide] | 0.1 to 0.5 µM | 0.5 to 5 |  |
| Cc1ccc(CNC(=O)c2cn(CCCCn3cc(NC(=O)Cc4cccc(OC(F)(F)F)c4)nn3)nn2)cn1 [Example 299, N-[(6-methylpyridin-3-yl)methyl]-1-[4-(4-{2-[3-(trifluoromethoxy)phenyl]acetamido}-1H-1,2,3-triazol-1-yl)butyl]-1H-1,2,3-triazole-4-carboxamide] | < 0.1 µM | < 0.1 |  |
| COCCNC(=O)c1nnc(CCCCn2cc(C(=O)NCc3ccccc3)nn2)s1 [Example 52, 5-{4-[4-(benzylcarbamoyl)-1H-1,2,3-triazol-1-yl]butyl}-N-(2-methoxyethyl)-1,3,4-thiadiazole-2-carboxamide] | 0.5 to 5 µM | > 5 |  |
| CNC(=O)c1cn(CCCCc2ccc(NC(=O)OC3CCCCC3)nn2)nn1 [Example 243, cyclohexyl (6-(4-(4-(methylcarbamoyl)-1H-1,2,3-triazol-1-yl)butyl)pyridazin-3-yl)carbamate] | 0.1 to 0.5 µM |  | 0.1 to 0.5 |
| CNC(=O)c1cn(CCCCc2ccc(NC(=O)CN3CCN(c4cccc(OC(F)(F)F)c4)CC3=O)nn2)nn1 [Example 227, N-methyl-1-(4-(6-(2-(2-oxo-4-(3-(trifluoromethoxy)phenyl)piperazin-1-yl)acetamido)pyridazin-3-yl)butyl)-1H-1,2,3-triazole-4-carboxamide] | < 0.1 µM | < 0.1 |  |
| O=C(NCc1ccc(C(F)(F)F)nc1)c1cn(CCC(F)Cn2cc(C(=O)NCc3cc(OC(F)(F)F)ccc3F)nn2)nn1 (centres unmarked) [Example 421, 1-{2-fluoro-4-[4-({[6-(trifluoromethyl)pyridin-3-yl]methyl}carbamoyl)-1H-1,2,3-triazol-1-yl]butyl}-N-{[2-fluoro-5-(trifluoromethoxy)phenyl]methyl}-1H-1,2,3-triazole-4-carboxamide] | < 0.1 µM | < 0.1 |  |
| O=C(Cc1cc(OC(F)(F)F)ccc1F)Nc1cn(CCC(F)Cn2cc(C(=O)NCc3ncccc3F)nn2)nn1 (centres unmarked) [Example 417, 1-[2-fluoro-4-(4-{2-[2-fluoro-5-(trifluoromethoxy)phenyl]acetamido}-1H-1,2,3-triazol-1-yl)butyl]-N-[(3-fluoropyridin-2-yl)methyl]-1H-1,2,3-triazole-4-carboxamide] | < 0.1 µM | < 0.1 |  |
| O=C(Cc1cc(OC(F)(F)F)ccc1F)Nc1cn(CC(F)CCn2cc(C(=O)NCc3ccccn3)nn2)nn1 (centres unmarked) [Example 375, 1-[3-fluoro-4-(4-{2-[2-fluoro-5-(trifluoromethoxy)phenyl]acetamido}-1H-1,2,3-triazol-1-yl)butyl]-N-(pyridin-2-ylmethyl)-1H-1,2,3-triazole-4-carboxamide] | < 0.1 µM | < 0.1 |  |
| O=C(NCc1cncc(C(F)(F)F)c1)c1cn(CCCCn2cc(C(=O)NCc3cc(C(F)(F)F)ccn3)nn2)nn1 [Example 141, 1-{4-[4-({[4-(trifluoromethyl)pyridin-2-yl]methyl}carbamoyl)-1H-1,2,3-triazol-1-yl]butyl}-N-{[5-(trifluoromethyl)pyridin-3-yl]methyl}-1H-1,2,3-triazole-4-carboxamide] | < 0.1 µM | < 0.1 |  |
| O=C(NCC(F)(F)F)c1cn(CC(F)CCc2nnc(C(=O)NCc3cc(C(F)(F)F)ccn3)s2)nn1 (centres unmarked) [Example 509, 5-(3-fluoro-4-{4-[(2,2,2-trifluoroethyl)carbamoyl]-1H-1,2,3-triazol-1-yl}butyl)-N-{[4-(trifluoromethyl)pyridin-2-yl]methyl}-1,3,4-thiadiazole-2-carboxamide] | 0.1 to 0.5 µM | 0.1 to 0.5 |  |
| O=C(Cc1cc(OC(F)(F)F)ccc1F)Nc1cn(CCC(F)Cn2cc(C(=O)NCc3cc(OC(F)(F)F)ccc3F)nn2)nn1 (centres unmarked) [Example 404, 1-[2-fluoro-4-(4-{2-[2-fluoro-5-(trifluoromethoxy)phenyl]acetamido}-1H-1,2,3-triazol-1-yl)buty]-N-{[2-fluoro-5-(trifluoromethoxy)phenyl]methyl}-1H-1,2,3-triazole-4-carboxamide] | < 0.1 µM | < 0.1 |  |
| CNC(=O)c1cn(CCCCc2ccc(NC(=O)CN3CCN(c4ccccc4OC(F)(F)F)CC3=O)nn2)nn1 [Example 249, N-methyl-1-(4-(6-(2-(2-oxo-4-(2-(trifluoromethoxy)phenyl)piperazin-1-yl)acetamido)pyridazin-3-yl)butyl)-1H-1,2,3-triazole-4-carboxamide] | < 0.1 µM | < 0.1 |  |
| O=C(NCc1cc(C(F)(F)F)ccn1)c1cn(CC(F)CCc2nnc(C(=O)NCc3ccccn3)s2)nn1 (centres unmarked) [Example 235, 5-(3-fluoro-4-(4-(((4-(trifluoromethyl)pyridin-2-yl)methyl)carbamoyl)-1H-1,2,3-triazol-1-yl)butyl)-N-(pyridin-2-ylmethyl)-1,3,4-thiadiazole-2-carboxamide] | < 0.1 µM | 0.1 to 0.5 |  |
| O=C(NCC1CCCC1)c1cn(CCC(F)Cn2cc(C(=O)NCc3cc(C(F)(F)F)ccn3)nn2)nn1 (centres unmarked) [Example 471, 1-(4-{4-[(cyclopentylmethyl)carbamoyl]-1H-1,2,3-triazol-1-yl}-2-fluorobutyl)-N-{[4-(trifluoromethyl)pyridin-2-yl]methyl}-1H-1,2,3-triazole-4-carboxamide] | < 0.1 µM | 0.1 to 0.5 |  |
| O=C(CN1CC(F)C1)Nc1cn(CCCCn2cc(C(=O)NCc3cc(OC(F)(F)F)ccc3F)nn2)nn1 [Example 350, N-{[2-fluoro-5-(trifluoromethoxy)phenyl]methyl}-1-(4-{4-[2-(3-fluoroazetidin-1-yl)acetamido]-1H-1,2,3-triazol-1-yl}butyl)-1H-1,2,3-triazole-4-carboxamide] | 0.1 to 0.5 µM | 0.1 to 0.5 |  |
| O=C(NCc1cncc(C(F)(F)F)c1)c1cn(CC(F)CCc2nnc(C(=O)NCc3cccc(C(F)(F)F)c3)s2)nn1 (centres unmarked) [Example 480, 5-{3-fluoro-4-[4-({[5-(trifluoromethyl)pyridin-3-yl]methyl}carbamoyl)-1H-1,2,3-triazol-1-yl]butyl}-N-{[3-(trifluoromethyl)phenyl]methyl}-1,3,4-thiadiazole-2-carboxamide] | < 0.1 µM | < 0.1 |  |
| O=C(Cc1cccc(OC(F)(F)F)c1)Nc1cn(CC(F)CCn2cc(C(=O)NCc3cccc(OC(F)(F)F)c3)nn2)nn1 (centres unmarked) [Example 339, 1-[3-fluoro-4-(4-{2-[3-(trifluoromethoxy)phenyl]acetamido}-1H-1,2,3-triazol-1-yl)butyl]-N-{[3-(trifluoromethoxy)phenyl]methyl}-1H-1,2,3-triazole-4-carboxamide] | < 0.1 µM | < 0.1 |  |
| O=C(NCc1cc(OC(F)(F)F)ccc1F)c1cn(CC(F)CCc2nnc(NC(=O)C3CCCCO3)s2)nn1 (centres unmarked) [Example 574, 1-(2-fluoro-4-(5-(tetrahydro-2H-pyran-2-carboxamido)-1,3,4-thiadiazol-2-yl)butyl)-N-(2-fluoro-5-(trifluoromethoxy)benzyl)-1H-1,2,3-triazole-4-carboxamide] | < 0.1 µM | < 0.1 |  |
